From PMC8474119, “Discovery and SAR Evolution of Pyrazole Azabicyclo[3.2.1]octane Sulfonamides as a Novel Class of Non-Covalent N-Acylethanolamine-Hydrolyzing Acid Amidase (NAAA) Inhibitors for Oral Administration” (Journal of Medicinal Chemistry, 2021) come the findings set out here.

The IC50 is the concentration at which inhibition is half-maximal. A higher IC50 goes with a need for much substance. As a reminder, the pIC50 is the IC50 on a negative log10 scale, so that one unit is a factor of ten. Low values mean a high IC50, high ones a low IC50.

The target of this experiment is T1, h-NAAA (Homo sapiens, UniProt Q02083).
T1 construct: made in house; host or cells: HEK-293 cells stably overexpressing human NAAA; enzyme-enriched (lysosomal) lysate
T1 sequence (Q02083 29-125 limits assumed): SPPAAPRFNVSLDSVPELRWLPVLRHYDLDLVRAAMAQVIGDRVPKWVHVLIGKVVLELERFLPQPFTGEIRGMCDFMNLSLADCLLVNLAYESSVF
T1 sequence (Q02083 126-359 limits assumed): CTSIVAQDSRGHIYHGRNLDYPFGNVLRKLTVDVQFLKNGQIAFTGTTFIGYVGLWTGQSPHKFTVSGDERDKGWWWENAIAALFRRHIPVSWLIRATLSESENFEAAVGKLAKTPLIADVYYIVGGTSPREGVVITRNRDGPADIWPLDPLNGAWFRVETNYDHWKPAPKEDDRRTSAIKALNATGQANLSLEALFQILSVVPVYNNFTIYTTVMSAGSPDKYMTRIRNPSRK
The experiment in a line: Fluorogenic human-NAAA assay (h-NAAA, fluo.). The following applies: for IC50 / pIC50: h-NAAA (fluo.); for IC50: mean ± SD (n ≥ 3), n.a.: not active @50 μM (<10% inhibition); for LipE: LipE = pIC50 – c Log P (h-NAAA); for pIC50: Table S1. The class given is biochemical. As for the experimental part:
Human recombinant proteins were obtained from HEK-293 stable overexpressing human NAAA, AC, and FAAH-1 cell lines, respectively. Cells were grown in Dulbecco’s modified Eagle medium (DMEM) containing 10% FBS, 1% glutamine, 1 mM sodium pyruvate, and 500 μg/mL geneticin (G418). To obtain a high-density cell proliferation, h-NAAA-HEK-293 cells were grown in BelloCell-500 bottle, a compact bioreactor. On the contrary, h-AC and h-FAAH-1-HEK-293 cells were grown in 150 mm dishes and scraped off with cold PBS 1× pH 7.4 at 80% confluence. Cell pellets were collected and stored at −80 °C until protein preparation.
HEK-293 cells stably transfected with the human NAAA or human AC coding sequences were used as the enzyme source. Cells were suspended in 20 mM Tris-HCl (pH 7.4) with 0.32 M sucrose, sonicated, and centrifuged at 800g for 30 min at 4 °C. Supernatants were then centrifuged at 12,000g for 30 min at 4 °C. Pellets were resuspended in PBS buffer (pH 7.4) and subjected to three freeze-thaw cycles at −80 °C. The suspension was finally centrifuged at 105,000g for 1 h at 4 °C, supernatants were collected, protein concentration was measured, and samples were aliquoted and stored at −80 °C until use.
The assay was run in 96-well microplates (Black OptiPlate-96 F; PerkinElmer, Massachusetts, USA), in a total reaction volume of 200 μL. h-NAAA protein preparation (4 μg) was preincubated for 30 min with various concentrations of test compounds or vehicle control (DMSO 5%) in 100 mM citrate/phosphate buffer (pH 4.5) containing 3.0 mM DTT, 0.1% NP40, 0.05% BSA, and 150 mM NaCl. The background (no activity) samples were prepared using assay buffer without h-NAAA and DMSO (5%). N-(4-methyl-2-oxo-chromen-7-yl)-hexadecanamide (PAMCA)[60] was used as a substrate (2 μM) and the reaction was carried out for 50 min at 37 °C. Fluorescence was measured with EnVision 2014 Multilabel Reader (PerkinElmer, Massachusetts, USA) using an excitation wavelength of 355 nm and an emission of 460 nm. IC50 values were calculated by non-linear regression analysis of log[concentration]/response curves generated with mean replicate values using a four-parameter Hill equation curve fitting with GraphPad Prism 5 (GraphPad Software Inc., CA, USA).

On to `Cc1n[nH]c(C)c1S(=O)(=O)N1[C@@H]2CC[C@H]1C[C@@H](Oc1ccccc1)C2` [Compound 31, (1R,3r,5S)-8-((3,5-Dimethyl-1H-pyrazol-4-yl)sulfonyl)-3-phenoxy-8-azabicyclo[3.2.1]octane], for which the IC50 stood at 93 ± 20 nM. On the same count and under the same terms, then `Cc1n[nH]c(C)c1S(=O)(=O)N1[C@@H]2CC[C@H]1C[C@H](Oc1ccccc1)C2` [Compound 32, (1R,3s,5S)-8-((3,5-Dimethyl-1H-pyrazol-4-yl)sulfonyl)-3-phenoxy-8-azabicyclo[3.2.1]octane], with 655 ± 45 nM; and `Cc1ccc(O[C@H]2C[C@H]3CC[C@@H](C2)N3S(=O)(=O)c2c(C)n[nH]c2C)cc1` [Compound 33, (1R,3r,5S)-8-((3,5-Dimethyl-1H-pyrazol-4-yl)sulfonyl)-3-(p-tolyloxy)-8-azabicyclo[3.2.1]octane], with 36 ± 4 nM.

For `Cc1ccc(O[C@@H]2C[C@H]3CC[C@@H](C2)N3S(=O)(=O)c2c(C)n[nH]c2C)cc1` [Compound 34, (1R,3s,5S)-8-((3,5-Dimethyl-1H-pyrazol-4-yl)sulfonyl)-3-(p-tolyloxy)-8-azabicyclo[3.2.1]octane], the IC50 was determined as 8710 ± 340 nM. This IC50 lies about 240-fold higher than the previous one. Same read-out and setting: then `Cc1cccc(OC2CC3CCC(C2)N3S(=O)(=O)c2c(C)n[nH]c2C)c1` [Compound 35, (1R,3r,5S)-8-((3,5-Dimethyl-1H-pyrazol-4-yl)sulfonyl)-3-(m-tolyloxy)-8-azabicyclo[3.2.1]octane], with 614 ± 140 nM; and `Cc1ccccc1O[C@H]1C[C@H]2CC[C@@H](C1)N2S(=O)(=O)c1c(C)n[nH]c1C` [Compound 36, (1R,3r,5S)-8-((3,5-Dimethyl-1H-pyrazol-4-yl)sulfonyl)-3-(o-tolyloxy)-8-azabicyclo[3.2.1]octane], with 291 ± 10 nM.

As to `CCc1ccc(O[C@H]2C[C@H]3CC[C@@H](C2)N3S(=O)(=O)c2c(C)n[nH]c2C)cc1` [Compound 37, (1R,3r,5S)-8-((3,5-Dimethyl-1H-pyrazol-4-yl)sulfonyl)-3-(4-ethylphenoxy)-8-azabicyclo[3.2.1]octane], inhibition was half-maximal at 51 ± 5 nM (IC50).

As for `Cc1n[nH]c(C)c1S(=O)(=O)N1[C@@H]2CC[C@H]1C[C@@H](Oc1ccc(C(C)C)cc1)C2` [Compound 38, (1R,3r,5S)-8-((3,5-Dimethyl-1H-pyrazol-4-yl)sulfonyl)-3-(4-isopropylphenoxy)-8-azabicyclo[3.2.1]octane], half-maximal inhibition (IC50) was put at 744 ± 90 nM. On the same count and under the same terms, then `CCCCCCc1ccc(O[C@H]2C[C@H]3CC[C@@H](C2)N3S(=O)(=O)c2c(C)n[nH]c2C)cc1` [Compound 41, (1R,3r,5S)-8-((3,5-Dimethyl-1H-pyrazol-4-yl)sulfonyl)-3-(4-hexylphenoxy)-8-azabicyclo[3.2.1]octane], with 19 ± 1 nM; and `Cc1n[nH]c(C)c1S(=O)(=O)N1[C@@H]2CC[C@H]1C[C@@H](Oc1ccc(CCC(C)C)cc1)C2` [Compound 42, (1R,3r,5S)-8-((3,5-Dimethyl-1H-pyrazol-4-yl)sulfonyl)-3-(4-isopentylphenoxy)-8-azabicyclo[3.2.1]octane], with 114 ± 10 nM. On the same count and under the same terms, then `Cc1n[nH]c(C)c1S(=O)(=O)N1[C@@H]2CC[C@H]1C[C@@H](Oc1ccc(C(F)(F)F)cc1)C2` [Compound 43, (1R,3r,5S)-8-((3,5-Dimethyl-1H-pyrazol-4-yl)sulfonyl)-3-(4-(trifluoromethyl)phenoxy)-8-azabicyclo[3.2.1]octane], with 212 ± 20 nM. Still for that read-out and setting: then `COc1ccc(O[C@H]2C[C@H]3CC[C@@H](C2)N3S(=O)(=O)c2c(C)n[nH]c2C)cc1` [Compound 44, (1R,3r,5S)-8-((3,5-Dimethyl-1H-pyrazol-4-yl)sulfonyl)-3-(4-methoxyphenoxy)-8-azabicyclo[3.2.1]octane], with 175 ± 15 nM; and `Cc1n[nH]c(C)c1S(=O)(=O)N1[C@@H]2CC[C@H]1C[C@@H](Oc1ccc(C#N)cc1)C2` [Compound 45], with 757 ± 80 nM. For the compound `Cc1n[nH]c(C)c1S(=O)(=O)N1[C@@H]2CC[C@H]1C[C@@H](Oc1ccc(F)cc1)C2` [Compound 46, (1R,3r,5S)-8-((3,5-Dimethyl-1H-pyrazol-4-yl)sulfonyl)-3-(4-fluorophenoxy)-8-azabicyclo[3.2.1]octane], half-maximal inhibition (IC50) required 143 ± 7 nM.

The compound `CCCOc1ccc(O[C@H]2C[C@H]3CC[C@@H](C2)N3S(=O)(=O)c2c(C)n[nH]c2C)cc1` [Compound 47, (1R,3r,5S)-8-((3,5-Dimethyl-1H-pyrazol-4-yl)sulfonyl)-3-(4-propoxyphenoxy)-8-azabicyclo[3.2.1]octane] returned a LipE of 3.55, a pIC50 of 6.35 and an IC50 of 450 ± 70 nM.

Compound `CCOCc1ccc(O[C@H]2C[C@H]3CC[C@@H](C2)N3S(=O)(=O)c2c(C)n[nH]c2C)cc1` [Compound 48, (1R,3r,5S)-8-((3,5-Dimethyl-1H-pyrazol-4-yl)sulfonyl)-3-(4-(ethoxymethyl)phenoxy)-8-azabicyclo[3.2.1]octane] yielded a LipE of 5.70, a pIC50 of 7.79 and an IC50 of 16 ± 2 nM.
